Experimental data taken from EP0307172A2, “Improvements in or relating to specific 5-HT3 antagonists” (ELI LILLY AND COMPANY, priority 1987, dated 1989).

Tests used:
[1] = target: T1, 5-HT₃ receptor (Rattus norvegicus, UniProt P35563); experiment: Inhibition of serotonin-induced Von Bezold-Jarisch reflex in rats; assay type: in vivo; settings: rat, iv, 15 minutes prior to 5-HT, read-out: Percent Inhibition of Reflex in Rats; for inhibition at 0.001 mg/kg: 0.001 mg/kg I.V.; for inhibition at 0.003 mg/kg: 0.003 mg/kg I.V.; for inhibition at 0.01 mg/kg: 0.01 mg/kg I.V.
T1 construct: from tissue
T1 sequence (P35563 24-483): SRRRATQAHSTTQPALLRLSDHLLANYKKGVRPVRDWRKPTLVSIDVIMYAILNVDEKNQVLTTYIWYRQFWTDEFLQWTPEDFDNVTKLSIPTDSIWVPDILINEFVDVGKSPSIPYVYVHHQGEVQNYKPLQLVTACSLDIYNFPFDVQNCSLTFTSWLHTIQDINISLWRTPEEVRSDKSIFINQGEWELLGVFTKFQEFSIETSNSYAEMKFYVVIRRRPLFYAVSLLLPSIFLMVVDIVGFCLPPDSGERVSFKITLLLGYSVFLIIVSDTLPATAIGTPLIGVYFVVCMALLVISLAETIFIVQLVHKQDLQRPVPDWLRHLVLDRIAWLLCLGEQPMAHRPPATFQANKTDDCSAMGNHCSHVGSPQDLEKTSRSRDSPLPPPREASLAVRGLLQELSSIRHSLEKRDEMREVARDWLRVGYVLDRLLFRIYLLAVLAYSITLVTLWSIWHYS
Text: The compounds of Formula I of this invention are long-acting, orally effective specific 5-HT₃ receptor antagonists, rendering them useful for the treatment of migraine. Because of this mechanism, the compounds of this invention should also be useful for treating emesis, motion sickness, ischemic bowel disease, diabetic gastric paresis, relaxation of the gastro-intestinal tract for instrumentation, other gastro-intestinal pain following surgery, obstetrics or as in abdominal cramps, and for treating CNS disorders such as schizophrenia and anxiety. The ability of these compounds to antagonize the effects of 5-HT was assessed by their inhibition of the Von Bezold-Jarisch reflex induced by 5-HT injected intravenously into the rat (See Paintal, Physiol. Rev., 53, 159 (1973)). When administered by the intravenous route 15 minutes prior to the administration of 5-HT, the compounds of this invention were effective in inhibiting the serotonin-induced Bezold-Jarisch reflex as summarized in Table 1 below: Table 1

[2] = system: cisplatin-induced emesis; experiment: Blockade of cisplatin-induced emesis in dogs; assay type: in vivo; settings: Canis lupus familiaris, iv, read-out: ED₅₀
Text: These compounds may also be used as antiemetic agents. […] Since 5HT₃ receptors are prevalent in the GI tract, other potential uses include other diseases of the gastro- intestinal tract, such as ischemic bowel, esophageal reflux, etc.

Compound | inhibition at 0.003 mg/kg [1] [%] | inhibition at 0.01 mg/kg [1] [%] | inhibition at 0.001 mg/kg [1] [%] | ED50 [2] [mg/kg]
CC1(C)Cc2cc(Cl)cc(C(=O)NC3CN4CCC3CC4)c2O1 (stereo not shown) [Example 49, 2,3-Dihydro-5-chloro-2,2-dimethyl-N-(1-azabicyclo[2.2.2]oct-3-yl)-7-benzofurancarboxamide (Z)-2-butenedioate] | 40 | 89 |  | 
CN1[C@@H]2CC[C@H]1C[C@@H](NC(=O)c1c(Cl)ccc3c1OC(C)(C)C3)C2 [Example 50, Endo-2,2-dimethyl-2,3-dihydro-6-chloro-N-(8-methyl-8-azabicyclo[3.2.1]oct-3-yl)-7-benzofurancarboxamide (Z)-2-butenedioate] |  | -3 |  | 
COc1ccc(C(=O)N[C@H]2C[C@H]3CC[C@@H](C2)N3C)c2c1CC(C)(C)O2 [Example 52, Endo-2,3-dihydro-4-methoxy-2,2-dimethyl-N-(8-methyl-8-azabicyclo[3.2.1]oct-3-yl)-7-benzofurancarboxamide (Z)-2-butenedioate] | -7 |  |  | 
CC1(C)CCc2cccc(C(=O)NC3CN4CCC3CC4)c2O1 (stereo not shown) [Example 53, N-(1-azabicyclo[2.2.2]oct-3-yl)-3,4-dihydro-2,2-dimethyl-2H-1-benzopyran-8-carboxamide (Z)-2-butenedioate] | 93 |  | 50 | 
CN1[C@@H]2CCC[C@H]1C[C@@H](NC(=O)c1cccc3c1OC(C)(C)C3)C2 [Example 55, Endo-2,3-dihydro-2,2-dimethyl-N-(9-methyl-9-azabicyclo[3.3.1]non-3-yl)-7-benzofurancarboxamide (Z)-2-butenedioate] | 88 |  |  | 
COc1c(Cl)cc(C(=O)N[C@H]2C[C@H]3CC[C@@H](C2)N3C)c2c1CC(C)(C)O2 [Example 57, Endo-5-chloro-2,3-dihydro-4-methoxy-2,2-dimethyl-N-(8-methyl-8-azabicyclo[3.2.1]oct-3-yl)-7-benzofurancarboxamide (Z)-2-butenedioate] |  | 3 |  | 
CN1C2CCC1CC(NC(=O)c1cc(F)cc3c1OC(C)(C)C3)C2 (stereo not shown) [Example 58, 5-Fluoro-2,3-dihydro-2,2-dimethyl-N-(8-methyl-8-azabicyclo[3.2.1]oct-3-yl)-7-benzofurancarboxamide (Z)-2-butenedioate] |  | 71 |  | 
CC1(C)Cc2cccc(C(=O)NC3CN4CCC3CC4)c2O1 (stereo not shown) [Example 60, 2,3-Dihydro-2,2-dimethyl-N-(1-azabicyclo[2.2.2]oct-3-yl)-7-benzofurancarboxamide (Z)-2-butenedioate] | 87 |  | 25 | 

Now from value to compound, other results behind:

inhibition at 0.003 mg/kg [1] [%] | inhibition at 0.01 mg/kg [1] [%] | Compound | inhibition at 0.001 mg/kg [1] [%] | ED50 [2] [mg/kg]
90 |  | CN1[C@@H]2CC[C@H]1C[C@@H](NC(=O)c1cc(Cl)cc3c1OC(C)(C)C3)C2 [Example 19, Endo-5-chloro-2,3-dihydro-2,2-dimethyl-N-(8-methyl-8-azabicyclo[3.2.1.]oct-3-yl)-7-benzofurancarboxamide (Z)-2-butenedioate] | 66 | 0.0356
 | -1 | COc1cc2c(c(C(=O)N[C@H]3C[C@H]4CC[C@@H](C3)N4C)c1)OC(C)(C)C2 [Example 41, Endo-2,3-dihydro-2,2-dimethyl-5-methoxy-N-(8-methyl-8-azabicyclo[3.2.1]oct-3-yl)-7-benzofurancarboxamide (Z)-2-butenedioate] |  | 
84 | 94 | CN1[C@@H]2CCC[C@H]1C[C@@H](NC(=O)c1cc(Cl)cc3c1OC(C)(C)C3)C2 [Example 54] |  | 
25 | 89 | CN1[C@@H]2CC[C@H]1C[C@@H](NC(=O)c1cc(Cl)c(N)c3c1OC(C)(C)C3)C2 [Example 56, Endo-2,3-dihydro-4-amino-5-chloro-2,2-dimethyl-N-(8-methyl-8-azabicyclo[3.2.1]oct-3-yl)-7-benzofurancarboxamide (Z)-2-butenedioate] |  | 
30 | 91 | CN1[C@@H]2CC[C@H]1C[C@@H](NC(=O)c1cc(Cl)cc3c1OC(C)(C)CC3)C2 [Example 61, Endo-2,2-dimethyl-6-chloro-N-(8-methyl-8-azabicyclo[3.2.1]oct-3-yl)-8-chromancarboxamide (Z)-2-butenedioate] |  | 
 | 54 | CN1[C@@H]2CC[C@H]1C[C@@H](NC(=O)c1cc(O)cc3c1OC(C)(C)C3)C2 [Example 62, Endo-2,3-dihydro-5-hydroxy-2,2-dimethyl-N-(8-methyl-8-azabicyclo[3.2.1]oct-3-yl)-7-benzofurancarboxamide (Z)-2-butenedioate] |  | 
